Drawing on PubChem BioAssay (NCI), this text covers GI50 and TGI for 5 compounds.

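1) Cells in 96-well plates. 2) Compound, 48 h, 5 concentrations. 3) Linear interpolation between surrounding doses. 4) Unreached endpoint = highest concentration. Abbreviation: GI50, concentration required for 50% inhibition of growth. Definition used: TGI = concentration required for complete inhibition of growth.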

Some test systems named below: A549 NSCLC; DU-145 prostate; K-562 leukemia; MCF7 breast; NCI-H23 lung; OVCAR-8 ovarian; SF-268 CNS; SK-OV-3 ovarian; SW-620 colon; UO-31 renal.
What all share (test): NCI tumour cell line growth inhibition, 48 h

In the case of `CC1(C)CC[C@]2(C(=O)O)CC[C@]3(C)[C@H](CC[C@@H]4[C@@]5(C)CCC(=O)C(C)(C)[C@@H]5CC[C@]43C)[C@H]2[C@H]1OC(=O)C(F)(F)F`, the GI50 in the experiment with A549 NSCLC was 9.66 µM; with DU-145 prostate it was 14.1 µM; in the experiment with K-562 leukemia, 3.61 µM; in the experiment on MCF7 breast it was 5.02 µM; in the experiment on NCI-H23 lung it was 11 µM; with OVCAR-8 ovarian it was 12.9 µM. Further, the GI50 in the experiment on SF-268 CNS was 15.3 µM; in the experiment with SK-OV-3 ovarian, 13.4 µM; in the experiment on SW-620 colon, 11.6 µM; with UO-31 renal, 13.7 µM. The TGI amounted to 31.6 µM with A549 NSCLC; 34 µM in the experiment on DU-145 prostate; 20.9 µM in the experiment on K-562 leukemia; 25.4 µM with MCF7 breast; 28.6 µM with NCI-H23 lung; 30.1 µM in the experiment on OVCAR-8 ovarian. The TGI was found to be 33.6 µM in the experiment on SF-268 CNS, 54 µM in the experiment with SK-OV-3 ovarian, 28.1 µM in the experiment on SW-620 colon and 27 µM with UO-31 renal.

As to `CC(C)(C)n1cc(-c2ccnc(NCCNS(=O)(=O)c3cccc4ccccc34)c2)c(-c2cccc(F)c2)n1`, the GI50 with A549 NSCLC is 16.7 µM; in the experiment with DU-145 prostate, 26.7 µM; in the experiment on K-562 leukemia, 5.9 µM; with MCF7 breast, 16.3 µM; with NCI-H23 lung, 14.9 µM; in the experiment on OVCAR-8 ovarian it was 26.7 µM. The GI50 in the experiment with SF-268 CNS is 40.3 µM; in the experiment with SK-OV-3 ovarian it was 26 µM; in the experiment with SW-620 colon, 16.6 µM; with UO-31 renal it was 10.4 µM. The TGI was 76.6 µM with A549 NSCLC; more than 100 µM in the experiment on DU-145 prostate; 82.2 µM with K-562 leukemia; 59.6 µM with MCF7 breast; 59.1 µM with NCI-H23 lung; more than 100 µM in the experiment on OVCAR-8 ovarian. Moreover, the TGI with SF-268 CNS is more than 100 µM; with SK-OV-3 ovarian, more than 100 µM; with SW-620 colon, 42.3 µM; with UO-31 renal, 59.8 µM.

In the case of `CC(C)[C@@H](CS(=O)(=O)C(C)C)N1C(=O)[C@@](C)(CC(=O)O)C[C@H](c2cccc(Cl)c2)[C@H]1c1ccc(Cl)cc1`, the GI50 with A549 NSCLC is 0.464 µM; in the experiment on DU-145 prostate, 21.8 µM; in the experiment on K-562 leukemia it was 18.3 µM; in the experiment on MCF7 breast, 0.282 µM; in the experiment with NCI-H23 lung, 17 µM; in the experiment on OVCAR-8 ovarian, 13.5 µM. For the same compound, the GI50 in the experiment with SF-268 CNS was 20.8 µM; in the experiment on SK-OV-3 ovarian, 19.2 µM; in the experiment with SW-620 colon it was 25.5 µM; in the experiment on UO-31 renal, 0.303 µM. Moreover, the TGI is 19.8 µM in the experiment on A549 NSCLC; more than 100 µM in the experiment on DU-145 prostate; more than 100 µM in the experiment on K-562 leukemia; 3.52 µM in the experiment with MCF7 breast; 56.8 µM in the experiment on NCI-H23 lung; more than 100 µM in the experiment on OVCAR-8 ovarian. For the same compound, the TGI with SF-268 CNS is more than 100 µM; with SK-OV-3 ovarian, 73.2 µM; in the experiment with SW-620 colon, more than 100 µM; in the experiment on UO-31 renal, 7.14 µM.

With `Clc1ccc(Nc2nc3ccccc3c3occc23)cc1`, the GI50 in the experiment with A549 NSCLC is 8.13 µM; in the experiment on DU-145 prostate, 7.01 µM; in the experiment on K-562 leukemia, 13.6 µM; with MCF7 breast it was 10.9 µM; in the experiment with NCI-H23 lung, 8.02 µM; with OVCAR-8 ovarian it was 9.2 µM. Besides, the GI50 with SF-268 CNS is 8.09 µM; in the experiment on SK-OV-3 ovarian it was 8.15 µM; in the experiment with SW-620 colon, 8.04 µM; in the experiment with UO-31 renal, 7.91 µM. In addition, the TGI with A549 NSCLC is 16.8 µM; with DU-145 prostate, 13.5 µM; in the experiment with K-562 leukemia, more than 50 µM; in the experiment with MCF7 breast, more than 50 µM; in the experiment on NCI-H23 lung it was 14.9 µM; with OVCAR-8 ovarian it was 20.9 µM. For the same compound, the TGI in the experiment with SF-268 CNS was found to be 16.7 µM; in the experiment on SK-OV-3 ovarian, 16 µM; in the experiment with SW-620 colon it was 14.8 µM; with UO-31 renal, 22.6 µM.

As for `CC(C)(C)c1nnc2n(c1=O)N=CC(c1ccc(Br)cc1)S2` (stereo not given), the GI50 was 43 µM in the experiment with A549 NSCLC; 29.3 µM with DU-145 prostate; 26.5 µM in the experiment with K-562 leukemia; 42 µM in the experiment with MCF7 breast; 19.8 µM in the experiment on NCI-H23 lung; 34.7 µM with OVCAR-8 ovarian. Further, the GI50 is 42.7 µM with SF-268 CNS, 89.9 µM in the experiment on SK-OV-3 ovarian, 35.1 µM with SW-620 colon and 20.7 µM in the experiment with UO-31 renal. The TGI with A549 NSCLC was more than 100 µM; in the experiment with DU-145 prostate, more than 100 µM; in the experiment with K-562 leukemia it was more than 100 µM; with MCF7 breast it was more than 100 µM; in the experiment with NCI-H23 lung it was 46.8 µM; in the experiment on OVCAR-8 ovarian, more than 100 µM. In addition, the TGI in the experiment with SF-268 CNS is more than 100 µM; with SK-OV-3 ovarian, more than 100 µM; with SW-620 colon, more than 100 µM; in the experiment with UO-31 renal it was 47.4 µM.
